Counter-ions that a name gives are not always drawn. Like-named read-outs stand apart in the source and are kept apart here.
Tests used:
[1] = molecular target: T1, butyrylcholine esterase of human serum origin (Homo sapiens, UniProt P06276); assay: biochemical; assay type: biochemical; details: for IC50: read-out: BuChE IC50
T1 construct: butyrylcholine esterase of human serum origin; purchased Biogenesis, Poole, UK; host or cells: human serum
Protocol: (§1) The AChE inhibitory activity and the BuChE inhibitory activity were determined by a thiocholine method (Ellman method) using acetylcholine esterase of human erythrocyte origin (Sigma, St. Louis, Mo., USA) and butyrylcholine esterase of human serum origin (Biogenesis, Poole, UK). Acetylcholine esterase or butyrylcholine esterase was diluted to a concentration of 0.2 IU/mL with 80 mM tris-HCL buffers (pH=7.4) containing 0.3% bovine serum albumin (BSA) to prepare an enzyme preparation. […] The stock solution was diluted at 3-fold common ratio with 10% DMSO and 80 mM tris-HCl buffers containing 0.3% BSA. On a 96 wells microplate, 20 μL of the drug solution with a given concentration, 30 μL of 80 mM tris-HCl buffers containing 0.3% BSA and 50 μL of the enzyme preparation were distributed, and incubated at room temperature for 1 hour after shaking for 10 seconds. […] For the respective drugs, the test was repeated twice. The % of control of the increase in light absorption was calculated at each concentration with respect to the respective drugs. % of control=increase in light absorption of drug/increase in light absorption of control×100

[2] = test system: Hartley male guinea pig, urethane anesthesia; assay: Pressure/flow study using guinea pig under continuous phenylephrine (Example 4); assay type: in vivo; details: i.v., phenylephrine 3 μg/animal/min
Protocol: A parameter (the maximum urine flow rate) at urination and a parameter (bladder compliance) at the collection of urine were also measured by a method similar as Example 3 shown below, with respect to the compounds B1 to B6 ([Table 8]).
A Hartley male guinea pig of 4 to 5 weeks old (Japan SLC) was used. After urethane anesthesia, the medial incision of the lower abdomen was carried out, and the bladder was exposed. Two injection needles (20G) with which a polyethylene tube (PE-100) was linked were inserted in the bladder, and one needle was used for injection of saline and another needle was used for measurement of the inner pressure of the bladder. A catheter was inserted in fernoral vein, and phenylephrine was continuously administrated at a flow rate of 3 μg/animal/min. Saline was continuously injected at a speed of 18 mL/h, the injection was stopped after intermittent urination was confirmed 2 times at minimum, and the saline in the bladder was removed by suction. Injection was started again, and the injection was stopped when the raise of the inner pressure of the bladder just before urination was confirmed. The amount of urine eliminated was measured by an electronic weighing machine and the inner pressure of the bladder was measured using a pressure transducer. The analogue data of the weight of urine and the inner pressure of the bladder were inputted in a multi-channel data analyzer (MP-100A-CE, Biopac systems), and analyzed by a proprietary software (Acqknowledge, Biopac systems). As the parameters, the maximum urine flow rate and bladder compliance were measured. Saline in the bladder was extracted after 10 min of the intravenous administration of the compound, and injection was started again to carry out measurement. The compounds were dissolved with DMSO so that administration volume was 0.5 mL/kg. The change rate of respective parameters before and after administration of the compounds was calculated and the calibration of significant difference was carried out by a solvent administration group and t calibration.

[3] = molecular target: T2, acetylcholine esterase of human erythrocyte origin (Homo sapiens, UniProt P22303); assay: biochemical; assay type: biochemical; details: for Selectivity b/a: BuChE IC50/AChE IC50 (Table 3)
T2 construct: acetylcholine esterase of human erythrocyte origin; purchased Sigma, St. Louis, Mo., USA; host or cells: human erythrocytes
T2 sequence (P22303 32-617 isoform P22303-2 limits assumed): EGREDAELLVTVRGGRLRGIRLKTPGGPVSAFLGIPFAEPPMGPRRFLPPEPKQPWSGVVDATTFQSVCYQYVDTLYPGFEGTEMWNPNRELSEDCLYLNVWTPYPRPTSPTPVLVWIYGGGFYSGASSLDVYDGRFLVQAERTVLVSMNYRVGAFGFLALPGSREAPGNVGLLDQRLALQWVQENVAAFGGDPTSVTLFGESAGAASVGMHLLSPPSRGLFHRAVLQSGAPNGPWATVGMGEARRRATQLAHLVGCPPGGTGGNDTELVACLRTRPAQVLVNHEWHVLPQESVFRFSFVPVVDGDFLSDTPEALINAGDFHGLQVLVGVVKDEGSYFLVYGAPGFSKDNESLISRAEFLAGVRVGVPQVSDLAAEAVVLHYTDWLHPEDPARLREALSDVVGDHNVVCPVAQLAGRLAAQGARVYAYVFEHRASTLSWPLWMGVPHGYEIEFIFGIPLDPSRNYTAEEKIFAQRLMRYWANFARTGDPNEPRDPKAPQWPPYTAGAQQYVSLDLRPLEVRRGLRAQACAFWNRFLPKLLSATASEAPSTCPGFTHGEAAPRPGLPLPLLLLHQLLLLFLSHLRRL
Protocol: as §1

bladder muscle = test system: bladder muscle; design: species or system guinea pig; details: for Tension (%): Compound A 0 μM
[4] = mean value of twice tests, read-out: AchE IC50

T1 sequence (P06276 29-602): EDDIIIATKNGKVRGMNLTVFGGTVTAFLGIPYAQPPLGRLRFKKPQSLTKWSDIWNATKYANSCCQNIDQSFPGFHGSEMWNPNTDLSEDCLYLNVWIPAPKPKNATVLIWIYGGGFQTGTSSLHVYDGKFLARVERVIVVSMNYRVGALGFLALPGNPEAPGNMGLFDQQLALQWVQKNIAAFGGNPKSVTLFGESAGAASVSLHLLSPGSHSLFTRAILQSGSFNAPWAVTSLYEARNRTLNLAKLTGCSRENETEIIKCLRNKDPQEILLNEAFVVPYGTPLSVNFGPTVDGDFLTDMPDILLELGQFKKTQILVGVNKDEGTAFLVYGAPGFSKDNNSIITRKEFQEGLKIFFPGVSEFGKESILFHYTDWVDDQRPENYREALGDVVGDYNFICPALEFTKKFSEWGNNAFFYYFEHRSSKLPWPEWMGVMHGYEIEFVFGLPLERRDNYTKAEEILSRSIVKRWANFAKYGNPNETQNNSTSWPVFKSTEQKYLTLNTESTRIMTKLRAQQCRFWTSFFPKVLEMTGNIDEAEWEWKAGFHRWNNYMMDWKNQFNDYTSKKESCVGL

Compound	IC50 ([1]; mean value of twice tests) [nM]	Bladder compliance, proportion for value before administration ([2]; 0.1 mg/kg)	Maximum urine flow rate, proportion for value before administration ([2]; 0.1 mg/kg)	Selectivity b/a [3]	IC50 [3, 4] [nM]	IC50 [1] [nM]	Bladder compliance, proportion for value before administration ([2]; 0.3 mg/kg)	Maximum urine flow rate, proportion for value before administration ([2]; 0.3 mg/kg)	IC50 [3] [nM]	Tension (%) (bladder muscle; Table 5: iso-OMPA 10 μM)	Tension (%) (bladder muscle; Table 5: iso-OMPA 100 μM)	effect on basic tension (bladder muscle; drug alone)	inhibitory activity for human butyrylcholine esterase [1]
Cn1c(=O)n(C)c2cc(C(=O)CCCCNCCc3ccccc3Cl)ccc21 [Compound B6, 5-[5-[[2-(2-chlorophenyl)ethyl]amino]pentanoyl]-1,3-dimethyl-1,3-dihydro-2H-benzoimidazol-2-one) hydrochloride]	> 10000	98.6 ± 6.9	147.1 ± 26.2	>140	71	–	–	–	–	–	–	–	–
CCNC(=O)N1CCc2cc(C(=O)CCCCNCCc3ccccc3OC)ccc21.Cl [Compound B4, N-ethyl-5-[5-[[2-(2-methoxyphenyl)ethyl]amino]pentanoyl]-1-indolincarboxamide hydrochloride]	–	–	–	>85	–	> 10000	104.2 ± 8.1	165.4 ± 14.9	118	–	–	–	–
CN(CCCCC(=O)c1ccc2[nH]c(=O)[nH]c2c1)CCc1ccccc1Cl [Compound B2, 5-[5-[[2-(2-chlorophenyl)ethyl](methyl)amino]pentanoyl]-1,3-dihydro-2H-benzoimidazol-2-one) hydrochloride]	> 10000	–	–	>45	224	–	95.0 ± 5.1	138.1 ± 13.1	–	–	–	–	–
CC(C)NP(=O)(NC(C)C)OP(=O)(NC(C)C)NC(C)C [iso-OMPA, tetraisopropylpyrophosphoramide]	–	–	–	–	–	–	–	–	–	−1.31 ± 0.21	−0.85 ± 0.38	alone did not influence tension either	showed the inhibitory activity to only butyrylcholine esterase
O=C(CCCCNCCc1ccccc1Cl)c1cc2c3c(c1)CC(=O)N3CCC2 [Compound B1, 8-[5-[[2-(2-chlorophenyl)ethyl]amino]pentanoyl]-5,6-dihydro-4H-pyrrolo[3,2,1-ij]quinolin-2(1H)-one) hydrochloride]	5700	105.1 ± 12.9	170.4 ± 27.8	100	56	–	–	–	–	–	–	–	–
